{"source": "PubChem BioAssay AID588577", "about": "(Sanford-Burnham Center for Chemical Genomics, 2011)", "note": "pIC50: −log10 of the molar value. Active and inactive are the calls of the source. The rule behind the calls is not given here.", "data": [{"target": "Caspase-3 (Homo sapiens) + Caspase-9 (Homo sapiens) (UniProt P42574+P55211)", "sequence (P42574 whole entry, looked up)": "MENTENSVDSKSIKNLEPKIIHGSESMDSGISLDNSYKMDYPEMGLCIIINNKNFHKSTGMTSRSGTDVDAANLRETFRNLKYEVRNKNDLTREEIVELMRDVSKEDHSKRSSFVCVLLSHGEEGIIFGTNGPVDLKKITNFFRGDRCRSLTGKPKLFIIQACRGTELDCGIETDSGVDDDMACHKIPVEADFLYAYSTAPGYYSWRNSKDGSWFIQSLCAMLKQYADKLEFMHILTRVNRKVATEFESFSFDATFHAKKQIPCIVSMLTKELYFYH", "sequence (P55211 whole entry, looked up)": "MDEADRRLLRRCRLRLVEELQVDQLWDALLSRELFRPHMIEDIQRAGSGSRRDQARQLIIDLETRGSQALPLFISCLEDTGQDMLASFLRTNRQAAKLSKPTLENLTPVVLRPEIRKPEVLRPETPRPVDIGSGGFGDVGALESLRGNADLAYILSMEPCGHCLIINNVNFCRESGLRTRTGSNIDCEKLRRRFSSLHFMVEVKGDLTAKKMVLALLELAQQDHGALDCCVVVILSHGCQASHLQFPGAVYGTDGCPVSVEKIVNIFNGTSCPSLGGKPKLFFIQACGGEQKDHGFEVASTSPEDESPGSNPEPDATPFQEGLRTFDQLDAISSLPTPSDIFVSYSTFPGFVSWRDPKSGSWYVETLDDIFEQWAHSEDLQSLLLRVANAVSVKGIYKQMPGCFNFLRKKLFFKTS", "test": "inhibition of LZ-caspase-9 coupled caspase-3 activity – biochemical, fluorescence, selectivity assay for Apaf-1 inhibitor project, SAR follow-up (AID 588577)", "conditions": "recombinant LZ-caspase-9 activating caspase-3, fluorogenic substrate", "values": [{"smiles": "Cn1cc(C(CC(=O)c2ccc(C3CCCCC3)cc2)C(=O)O)c2ccccc21", "note": "(stereo not given)", "pIC50": 4.01}, {"smiles": "Cn1cc(C(CC(=O)c2ccc(C(C)(C)C)cc2)C(=O)O)c2ccccc21", "note": "(stereo not given)", "pIC50": 4.07}, {"smiles": "CCN(CC)CCOC(=O)c1ccc(N/C=C(/C#N)c2nc(-c3ccc4c(c3)OCO4)cs2)cc1", "IC50": "> 100 µM (inactive)"}, {"smiles": "CCN(CC)CCOC(=O)c1ccc(N/C=C(/C#N)c2nc(-c3cc4ccccc4oc3=O)cs2)cc1", "IC50": "> 100 µM (inactive)"}, {"smiles": "CCN(CC)CCOC(=O)c1ccc(N/C=C(\\C#N)c2nc(-c3cccs3)cs2)cc1", "IC50": "> 100 µM (inactive)"}, {"smiles": "O=C(Nc1ccc2c(c1)C(=O)NC2=O)c1nc2ccccc2s1", "IC50": "> 100 µM (inactive)"}, {"smiles": "Cc1ccc(-c2nc3ccc(NC(=O)c4cccs4)cc3[nH]2)o1", "IC50": "> 100 µM (inactive)"}, {"smiles": "O=C(Nc1ccc2nc(-c3cccs3)[nH]c2c1)c1cccs1", "IC50": "> 100 µM (inactive)"}, {"smiles": "CCN(CC)CCOC(=O)c1ccc(N/C=C(\\C#N)c2nc(-c3ccc(Br)cc3)cs2)cc1", "IC50": "> 100 µM (inactive)"}, {"smiles": "CCN(CC)CCOC(=O)c1ccc(N/C=C(/C#N)c2nc(-c3ccc(OC)c(OC)c3)cs2)cc1", "IC50": "> 100 µM (inactive)"}, {"smiles": "O=C1c2cc(Cl)ccc2-n2c1nc1ccccc1c2=O", "pIC50": 4.05}, {"smiles": "Cc1ccc2c(c1)C(=O)c1nc3ccccc3c(=O)n1-2", "IC50": "> 100 µM (inactive)"}, {"smiles": "COc1ccc(N2C(=O)CC3(CC(c4ccc(F)cc4)=NO3)C2=O)cc1", "note": "(stereo not given)", "pIC50": 4.43}, {"smiles": "CCN(CC)CCOC(=O)c1ccc(N/C=C(/C#N)c2nc(-c3ccc(OC)cc3)cs2)cc1", "IC50": "> 100 µM (inactive)"}, {"smiles": "Cc1nc2ccc(-c3nc4ccc(NC(=O)c5cccs5)cc4[nH]3)cc2[nH]1", "IC50": "> 100 µM (inactive)"}, {"smiles": "CC(=O)c1ccc(C(=O)Nc2ccc3nc(C)[nH]c3c2)s1", "IC50": "> 100 µM (inactive)"}, {"smiles": "CCN(CC)CCOC(=O)c1ccc(N/C=C(\\C#N)c2nc(-c3ccc(Cl)c(Cl)c3)cs2)cc1", "pIC50": 4.14}, {"smiles": "O=C(Nc1ccc(-c2nc3ccc(NC(=O)c4cccs4)cc3[nH]2)cc1)c1cccs1", "IC50": "> 100 µM (inactive)"}, {"smiles": "Cc1cc(NC(=O)C2CC2)sc1C(=O)Nc1ccc2nc(-c3cc(F)ccc3F)[nH]c2c1", "pIC50": 4.05}, {"smiles": "O=C(Nc1ccc2nc(-c3ccc(Br)o3)[nH]c2c1)c1cccs1", "IC50": "> 100 µM (inactive)"}]}]}
